# PubChem BioAssay (NCI)
#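 The concentration for 50% growth inhibition is given as GI50. Definition used: TGI = concentration required for complete inhibition of growth.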
# Columns and labels:
# Assay in all cases: NCI-60 cell line screen, 384-well format
# [1] = tested on: HS 578T breast
# [2] = tested on: SNB-19 CNS
# [3] = tested on: CAKI-1 renal
# [4] = tested on: A549 NSCLC
# [5] = tested on: OVCAR-3 ovarian
# [6] = tested on: MOLT-4 leukemia
# [7] = tested on: HCC-2998 colon
# [8] = tested on: NCI-H23 lung
# [9] = tested on: NCI-H226 lung
# [10] = tested on: HCT-15 colon
# [11] = tested on: SK-MEL-28 melanoma
# [12] = tested on: M14 melanoma
# [13] = tested on: OVCAR-8 ovarian
# [14] = tested on: MALME-3M melanoma
# [15] = tested on: UACC-257 melanoma
# [16] = tested on: SK-MEL-5 melanoma
# [17] = tested on: SK-MEL-2 melanoma
# [18] = tested on: SF-268 CNS
# [19] = tested on: CCRF-CEM leukemia
# [20] = tested on: MCF7 breast
# [21] = tested on: HT29 colon
# [22] = tested on: SF-539 CNS
# [23] = tested on: KM12 colon
# [24] = tested on: MDA-MB-468 breast
# [25] = tested on: SN12C renal
# [26] = tested on: BT-549 breast
# [27] = tested on: SW-620 colon
# [28] = tested on: RXF 393 renal
# [29] = tested on: OVCAR-5 ovarian
# [30] = tested on: ACHN renal
# [31] = tested on: DU-145 prostate
# [32] = tested on: UACC-62 melanoma
# [33] = tested on: SR leukemia
# [34] = tested on: MDA-MB-231 breast
# [35] = tested on: OVCAR-4 ovarian
# [36] = tested on: HOP-92 NSCLC
# [37] = tested on: NCI-H460 NSCLC
# [38] = tested on: NCI-H522 lung
# [39] = tested on: NCI/ADR-RES ovarian
# [40] = tested on: 786-0 renal
# [41] = tested on: RPMI-8226 leukemia
# [42] = tested on: EKVX NSCLC
# [43] = tested on: IGROV1 ovarian
# [44] = tested on: MDA-MB-435 melanoma
# [45] = tested on: SNB-75 CNS
# [46] = tested on: A498 renal
# [47] = tested on: NCI-H322M lung
# [48] = tested on: COLO 205 colon
# [49] = tested on: PC-3 prostate
# [50] = tested on: T-47D breast
# [51] = tested on: HL-60(TB) leukemia
# [52] = tested on: SF-295 CNS
# [53] = tested on: HOP-62 NSCLC
# [54] = tested on: U251 glioblastoma
# [55] = tested on: SK-OV-3 ovarian
# [56] = tested on: TK-10 renal
# [57] = tested on: LOX IMVI melanoma
# [58] = tested on: UO-31 renal
# [59] = tested on: HCT-116 colon
structure (smiles),measurement,setting,value
CC1=C(CO)C2=C(C)C3(CC3)[C@@](C)(O)C(=O)C2=C1,GI50,[1],325 nM
same,TGI,[1],1070 nM
same,GI50,[2],317 nM
same,TGI,[2],1.24 µM
same,GI50,[3],178 nM
same,TGI,[3],372 nM
same,GI50,[4],96.2 nM
same,TGI,[4],527 nM
same,GI50,[5],152 nM
same,TGI,[5],312 nM
same,GI50,[6],147 nM
same,TGI,[6],336 nM
same,GI50,[7],110 nM
same,TGI,[7],240 nM
same,GI50,[8],53.9 nM
same,TGI,[8],181 nM
same,GI50,[9],297 nM
same,TGI,[9],793 nM
same,GI50,[10],188 nM
same,TGI,[10],365 nM
same,GI50,[11],251 nM
same,TGI,[11],624 nM
same,GI50,[12],234 nM
same,TGI,[12],576 nM
same,GI50,[13],219 nM
same,TGI,[13],527 nM
same,GI50,[14],152 nM
same,TGI,[14],296 nM
same,GI50,[15],216 nM
same,TGI,[15],465 nM
same,GI50,[16],166 nM
same,TGI,[16],376 nM
same,GI50,[17],237 nM
same,TGI,[17],392 nM
same,GI50,[18],143 nM
same,TGI,[18],318 nM
same,GI50,[19],1490 nM
same,TGI,[19],2830 nM
same,GI50,[20],184 nM
same,TGI,[20],496 nM
same,GI50,[21],184 nM
same,TGI,[21],0.395 µM
same,GI50,[22],173 nM
same,TGI,[22],313 nM
same,GI50,[23],1400 nM
same,TGI,[23],3.36 µM
same,GI50,[24],45.1 nM
same,TGI,[24],125 nM
same,GI50,[25],231 nM
same,TGI,[25],0.761 µM
same,GI50,[26],132 nM
same,TGI,[26],269 nM
same,GI50,[27],1160 nM
same,TGI,[27],3.15 µM
same,GI50,[28],16.7 nM
same,TGI,[28],35.8 nM
same,GI50,[29],213 nM
same,TGI,[29],0.519 µM
same,GI50,[30],214 nM
same,TGI,[30],404 nM
same,GI50,[31],46.8 nM
same,TGI,[31],305 nM
same,GI50,[32],394 nM
same,TGI,[32],1520 nM
same,GI50,[33],171 nM
same,TGI,[33],361 nM
same,GI50,[34],203 nM
same,TGI,[34],473 nM
same,GI50,[35],201 nM
same,TGI,[35],0.392 µM
same,GI50,[36],124 nM
same,TGI,[36],445 nM
same,GI50,[37],43.7 nM
same,TGI,[37],174 nM
same,GI50,[38],116 nM
same,TGI,[38],244 nM
same,GI50,[39],222 nM
same,TGI,[39],428 nM
same,GI50,[40],180 nM
same,TGI,[40],381 nM
same,GI50,[41],5.96 µM
same,TGI,[41],18 µM
same,GI50,[42],203 nM
same,TGI,[42],452 nM
same,GI50,[43],163 nM
same,TGI,[43],447 nM
same,GI50,[44],1760 nM
same,TGI,[44],3.48 µM
same,GI50,[45],119 nM
same,TGI,[45],250 nM
same,GI50,[46],50.8 nM
same,TGI,[46],367 nM
same,GI50,[47],182 nM
same,TGI,[47],369 nM
same,GI50,[48],132 nM
same,TGI,[48],0.272 µM
same,GI50,[49],186 nM
same,TGI,[49],404 nM
same,GI50,[50],159 nM
same,TGI,[50],423 nM
same,GI50,[51],179 nM
same,TGI,[51],334 nM
same,GI50,[52],185 nM
same,TGI,[52],0.374 µM
same,GI50,[53],159 nM
same,TGI,[53],316 nM
same,GI50,[54],203 nM
same,TGI,[54],410 nM
same,GI50,[55],179 nM
same,TGI,[55],0.39 µM
CN(C)C/C=C/C(=O)Nc1cc2c(Nc3ccc(F)c(Cl)c3)ncnc2cc1O[C@H]1CCOC1,GI50,[1],1450 nM
same,TGI,[1],3140 nM
same,GI50,[2],1910 nM
same,TGI,[2],10.6 µM
same,GI50,[3],138 nM
same,TGI,[3],1570 nM
same,GI50,[4],436 nM
same,TGI,[4],2330 nM
same,GI50,[5],79.8 nM
same,TGI,[5],928 nM
same,GI50,[6],232 nM
same,TGI,[6],1260 nM
same,GI50,[7],1340 nM
same,TGI,[7],2810 nM
same,GI50,[8],1320 nM
same,TGI,[8],2780 nM
same,GI50,[9],907 nM
same,TGI,[9],2210 nM
same,GI50,[10],627 nM
same,TGI,[10],2000 nM
same,GI50,[11],1990 nM
same,TGI,[11],5180 nM
same,GI50,[12],1310 nM
same,TGI,[12],2590 nM
same,GI50,[56],< 10 nM
same,TGI,[56],11.2 µM
same,GI50,[13],1200 nM
same,TGI,[13],2770 nM
same,GI50,[14],1420 nM
same,TGI,[14],2730 nM
same,GI50,[15],1330 nM
same,TGI,[15],2620 nM
same,GI50,[16],1020 nM
same,TGI,[16],2190 nM
same,GI50,[18],1390 nM
same,TGI,[18],3910 nM
same,GI50,[20],1220 nM
same,TGI,[20],2780 nM
same,GI50,[21],2000 nM
same,TGI,[21],11.4 µM
same,GI50,[22],1410 nM
same,TGI,[22],2780 nM
same,GI50,[23],1230 nM
same,TGI,[23],3.07 µM
same,GI50,[24],< 10 nM
same,GI50,[25],316 nM
same,TGI,[25],6.53 µM
same,GI50,[26],617 nM
same,TGI,[26],1920 nM
same,GI50,[27],1800 nM
same,TGI,[27],5.1 µM
same,GI50,[28],226 nM
same,TGI,[28],838 nM
same,GI50,[29],1050 nM
same,TGI,[29],7.64 µM
same,GI50,[30],< 10 nM
same,TGI,[30],1420 nM
same,GI50,[31],383 nM
same,TGI,[31],3610 nM
same,GI50,[32],1370 nM
same,TGI,[32],2780 nM
same,GI50,[57],1050 nM
same,TGI,[57],2240 nM
same,GI50,[33],1210 nM
same,TGI,[33],2450 nM
same,GI50,[34],386 nM
same,TGI,[34],1870 nM
same,GI50,[35],2050 nM
same,TGI,[35],6.59 µM
same,GI50,[36],499 nM
same,TGI,[36],2510 nM
same,GI50,[37],1790 nM
same,TGI,[37],3800 nM
same,GI50,[58],184 nM
same,TGI,[58],10.7 µM
same,GI50,[38],< 10 nM
same,TGI,[38],34.4 nM
same,GI50,[39],1400 nM
same,TGI,[39],5410 nM
same,GI50,[40],763 nM
same,TGI,[40],2190 nM
same,GI50,[41],1.28 µM
same,TGI,[41],2.55 µM
same,GI50,[42],< 10 nM
same,TGI,[42],2160 nM
same,GI50,[43],< 10 nM
same,TGI,[43],1090 nM
same,GI50,[44],2010 nM
same,TGI,[44],9.46 µM
same,GI50,[45],429 nM
same,TGI,[45],2960 nM
same,GI50,[46],126 nM
same,TGI,[46],1540 nM
same,GI50,[47],< 10 nM
same,TGI,[47],13.1 nM
same,GI50,[48],2080 nM
same,TGI,[48],10.3 µM
same,GI50,[59],551 nM
same,TGI,[59],1950 nM
same,GI50,[49],1570 nM
same,TGI,[49],3580 nM
same,GI50,[50],17.1 nM
same,TGI,[50],2540 nM
same,GI50,[51],340 nM
same,TGI,[51],1300 nM
same,GI50,[52],3930 nM
same,TGI,[52],14.6 µM
same,GI50,[53],1910 nM
same,TGI,[53],5050 nM
same,GI50,[54],1310 nM
same,TGI,[54],4050 nM
same,GI50,[55],112 nM
same,TGI,[55],8.4 µM
